Results as given in the supplement of paper PMC10883282.
± gives the standard deviation of the averaged measurements.

Tested on: SW1353
Assay: relative viability vs DMSO control (72 h) (fraction); higher = more viable cells
Summary of the method: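 Sarcoma cell lines were seeded in 384-well plates at densities chosen for 80–90% confluence, then 24 h later given 2.5 µl of serially diluted compound drawn from source plates spanning 10 mM to 0.0002 mM. They were held 72 h at 37 °C, 5% CO2, with 0.1% DMSO vehicle and a 5 µM positive control included. Relative viability was read with ATPLite as percent growth and averaged over up to triplicate wells. Rescaling placed full at 1 and none at 0.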

Structure (SMILES) | relative viability (0.00017 µM) | relative viability (0.00051 µM) | relative viability (0.00152 µM) | relative viability (0.00457 µM) | relative viability (0.01372 µM) | relative viability (0.04115 µM) | relative viability (0.1235 µM) | relative viability (0.3704 µM) | relative viability (1.111 µM) | relative viability (3.333 µM) | relative viability (10 µM) | relative viability (2 pM) | relative viability (5 pM) | relative viability (15 pM) | relative viability (50 pM) | relative viability (0.00014 µM) | relative viability (0.00041 µM) | relative viability (0.0012 µM) | relative viability (0.0037 µM) | relative viability (0.011 µM) | relative viability (200 fM) | relative viability (600 fM)
C[C@@H]1CCN(C(=O)CC#N)C[C@@H]1N(C)c1ncnc2[nH]ccc12 [Tofacitinib] | 1.08 ± 0.025 | 1.07 ± 0.06 | 1.03 ± 0.036 | 1.04 ± 0.027 | 0.986 ± 0.039 | 1.02 ± 0.031 | 0.989 ± 0.033 | 1.01 ± 0.034 | 0.998 ± 0.054 | 1 ± 0.022 | 0.884 ± 0.035 | – | – | – | – | – | – | – | – | – | – | –
CC[C@H](Nc1ncnc2[nH]cnc12)c1nc2cccc(F)c2c(=O)n1-c1ccccc1 [Idelalisib] | 1.06 ± 0.038 | 1.05 ± 0.053 | 1.04 ± 0.048 | 1.05 ± 0.02 | 1.01 ± 0.043 | 0.969 ± 0.016 | 0.952 ± 0.045 | 0.931 ± 0.043 | 0.831 ± 0.042 | 0.752 ± 0.011 | 0.573 ± 0.027 | – | – | – | – | – | – | – | – | – | – | –
COc1cc2nccc(Oc3ccc(NC(=O)Nc4cc(C)on4)c(Cl)c3)c2cc1OC [Tivozanib] | 0.97 ± 0.029 | 0.983 ± 0.036 | 0.965 ± 0.044 | 0.961 ± 0.064 | 1.01 ± 0.033 | 0.988 ± 0.028 | 1.01 ± 0.021 | 1.04 ± 0.021 | 1.05 ± 0.054 | 0.8973 ± 0.0033 | 0.582 ± 0.0097 | – | – | – | – | – | – | – | – | – | – | –
COc1cc2c(cc1O)CCN[C@]21CS[C@@H]2c3c(OC(C)=O)c(C)c4c(c3[C@H](COC1=O)N1[C@@H]2[C@H]2c3c(cc(C)c(OC)c3O)C[C@@H]([C@@H]1O)N2C)OCO4 [Trabectedin] | – | – | – | – | – | – | – | – | – | – | – | 1.09 ± 0.017 | 1.09 ± 0.027 | 1.06 ± 0.03 | 1.04 ± 0.013 | 1.04 ± 0.03 | 0.92 ± 0.018 | 0.0356 ± 0.003 | 0.229 ± 0.0077 | 0.186 ± 0.015 | 1.1 ± 0.027 | 1.1 ± 0.012
N#CC[C@H](C1CCCC1)n1cc(-c2ncnc3[nH]ccc23)cn1 [Ruxolitinib] | 1.049 ± 0.0061 | 1.1 ± 0.052 | 1.1 ± 0.027 | 1.09 ± 0.029 | 1.09 ± 0.029 | 1.09 ± 0.014 | 1.05 ± 0.021 | 1.04 ± 0.011 | 1.03 ± 0.038 | 1.02 ± 0.033 | 0.807 ± 0.012 | – | – | – | – | – | – | – | – | – | – | –
Cc1cc(C)c(/C=C2\C(=O)Nc3ccccc32)[nH]1 [Semaxanib] | 0.919 ± 0.019 | 0.8637 ± 0.004 | 0.898 ± 0.032 | 0.897 ± 0.043 | 0.865 ± 0.022 | 0.895 ± 0.052 | 0.892 ± 0.016 | 0.886 ± 0.017 | 0.872 ± 0.04 | 0.818 ± 0.022 | 0.788 ± 0.032 | – | – | – | – | – | – | – | – | – | – | –
O=C(Cc1ccc(-c2ccc(OCCN3CCOCC3)cc2)cn1)NCc1ccccc1 [KX2-391] | 1.06 ± 0.023 | 1.09 ± 0.031 | 1.02 ± 0.014 | 1.01 ± 0.035 | 0.962 ± 0.01 | 0.952 ± 0.011 | 0.607 ± 0.037 | 0.446 ± 0.024 | 0.425 ± 0.018 | 0.462 ± 0.014 | 0.458 ± 0.019 | – | – | – | – | – | – | – | – | – | – | –
COc1cc2c(Oc3ccc4[nH]c(C)cc4c3F)ncnc2cc1OCCCN1CCCC1 [Cediranib] | 0.971 ± 0.026 | 0.993 ± 0.025 | 1.004 ± 0.0039 | 0.999 ± 0.024 | 0.954 ± 0.011 | 0.949 ± 0.016 | 0.908 ± 0.013 | 0.848 ± 0.035 | 0.79 ± 0.034 | 0.751 ± 0.11 | 0.0589 ± 0.0064 | – | – | – | – | – | – | – | – | – | – | –
CO[C@H]1C[C@@H]2CC[C@@H](C)[C@@](O)(O2)C(=O)C(=O)N2CCCC[C@H]2C(=O)O[C@H]([C@H](C)C[C@@H]2CC[C@@H](OP(C)(C)=O)[C@H](OC)C2)CC(=O)[C@H](C)/C=C(\C)[C@@H](O)[C@@H](OC)C(=O)[C@H](C)C[C@H](C)/C=C/C=C/C=C/1C [Ridaforolimus] | 0.961 ± 0.028 | 0.905 ± 0.041 | 0.805 ± 0.012 | 0.771 ± 0.011 | 0.747 ± 0.029 | 0.742 ± 0.033 | 0.723 ± 0.016 | 0.72 ± 0.035 | 0.702 ± 0.012 | 0.707 ± 0.012 | 0.682 ± 0.023 | – | – | – | – | – | – | – | – | – | – | –
Cc1cnc(Nc2ccc(OCCN3CCCC3)cc2)nc1Nc1cccc(S(=O)(=O)NC(C)(C)C)c1 [Fedratinib] | 1.058 ± 0.01 | 1.02 ± 0.05 | 1.03 ± 0.038 | 1.02 ± 0.016 | 0.987 ± 0.048 | 1 ± 0.046 | 0.915 ± 0.018 | 0.764 ± 0.036 | 0.533 ± 0.022 | 0.184 ± 0.0053 | 0.00437 ± 0.0012 | – | – | – | – | – | – | – | – | – | – | –
Cn1cc(-c2cc3c(N4CCN(c5ncc([C@@](C)(N)c6ccc(F)cc6)cn5)CC4)ncnn3c2)cn1 [Avapritinib] | 0.96 ± 0.072 | 0.905 ± 0.043 | 0.894 ± 0.057 | 0.92 ± 0.012 | 0.894 ± 0.04 | 0.883 ± 0.051 | 0.871 ± 0.036 | 0.819 ± 0.04 | 0.819 ± 0.02 | 0.776 ± 0.03 | 0.715 ± 0.042 | – | – | – | – | – | – | – | – | – | – | –
CN1CCN(c2ccc3nc(-c4c(N)c5c(F)cccc5[nH]c4=O)[nH]c3c2)CC1 [Dovitinib] | 1.08 ± 0.036 | 1.09 ± 0.015 | 1.04 ± 0.04 | 1.07 ± 0.019 | 1.06 ± 0.014 | 1.01 ± 0.03 | 1.01 ± 0.048 | 0.959 ± 0.036 | 0.749 ± 0.017 | 0.53 ± 0.043 | 0.06 ± 0.0053 | – | – | – | – | – | – | – | – | – | – | –
